Test results taken from patent US20070292440A1, “CD154 blockade therapy for pancreatic islet tissue transplantation” (priority 1997, published 2007).
“And” between values parts separate entries of the source, which are not always exact repeats. Equal entries are not always repeated.

Assays:
[1] = tested on: islet allografts in pancreatectomized baboons; assay: Baboon model of islet cell transplantation (ICT) for pancreatectomy-induced diabetes; type: in vivo, Baboon (Papio hamadryas)
Experimental: Identification of donor-recipient pairs. Peripheral blood mononuclear cells (PBMC) from 10 potential recipients (Baboons, Papio hamadryas, male and female, 1-2 years of age, approximately 4.0 kg) from the Mannheimer facility (Homestead, Fla.) were used as responders against PBMC from 11 male donors (over 2 years of age, purchased from the Southwest Foundation in Texas) in a one way mixed leukocyte culture (MLC). The baboon MLC was performed via standardized methods for human MLC. […] The donors were of a sufficient size that enough islets and bone marrow were obtained from 1 donor to allow for transplantation into 2 recipients. […] An attempt was made to choose two recipients with similar MLC reactivity to the designated donor, and donor-recipient pairs with varying degrees of alloreactivity were chosen.
Islet/bone marrow preparation and administration.
For studies on enhancing tolerance, vertebral body was harvested from the pancreas donor and processed to obtain donor bone marrow cells (DBMC) generally according to routine modifications of methods for processing of human vertebral bodies. For recipients of donor bone marrow, infusions were administered on days 5 and II post ICT. A total dose of 10^9 nucleated cells per kg recipient body weight was given.
Pancreatectomy and ICT. […] The number of IEQ was determined immediately prior to transplantation. Total pancreatectomy was performed according to established surgical techniques. After completion of the total pancreatectomy, a 20G angiocatheter was inserted into one of the mesenteric vessel tributaries of the portal vein, and ICT was accomplished by gravity infusion of the islet preparation over a 10 min period.
Immunosuppression and post-operative care. FK506 (tacrolimus) was chosen as the immunosuppressant, as this drug is currently utilized in human ICT. FK506 administration commenced at 5 days prior to ICT. A dosage of 0.1 mg/kg/day, i.m. was administered to recipient baboons. Drug levels were monitored daily and dosage was adjusted to maintain trough levels of approximately 15 ng/ml.
For the first post-operative day (study day 1, or POD 1), the baboons were given intravenous fluids. The animals were subsequently fed a diet containing 60 g of carbohydrate per day, with 45 g of monkey biscuits (supplemented with viokase) and 15 g of fruit.
Monitoring. Fasting and post-prandial blood glucose (FG and PPG, respectively) were monitored via heel stick and blood testing with a Glucometer Elite, and at least once weekly, a blood sample was drawn to obtain plasma for testing of FG levels with a Beckman glucose analyzer. In general a blood sample was also obtained to confirm unusually high readings. […] At approximately 3 months post-transplant, testing was decreased to every other week. The blood samples were used for phenotyping of peripheral blood to assess leukocyte subsets and determination of CBC and chemistries, 5c8 and anti-5c8 levels, insulin and C-peptide levels, and chimerism. Blood was drawn periodically for retesting of MLC reactivity to donor and 3rd party antigens.

[2] = tested on: islet allografts in pancreatectomized diabetic rhesus monkeys; assay: Rhesus monkey model of ICT for pancreatectomy-induced diabetes; type: in vivo; conditions: induction days -1, 0, 3, 10 + monthly maintenance, monotherapy
Experimental: Unless specified, all procedures were generally as described above for the baboon model studies.
Animal procedures. SPF rhesus monkeys, 2-7 years of age, are readily available from COVANCE (Alice, Tex.) or the Mannheimer Foundation, Inc. (Homestead, Fla.) or similar vendors. Upon admission, all monkeys are examined to determine their general health, physical condition, and psychological status. All surgical procedures are carried under aseptic conditions. Animals are fasted for 12-18 hours before surgery and will be pre-anesthetized with i.m. ketamine (10 mg/kg) and atropine (0.04 mg/kg). Once the animal is sedated, an endotracheal tube and an i.v. catheter are promptly installed. The endotracheal tube is used to protect the airway and provide easy access for emergency drugs. The animals are anesthetized with an isoflurane and oxygen combination. Normal saline solution for injection is infused through the catheter throughout the entire ICT procedure at a rate of 10 ml/kg/hour.
A midline incision is made to gain access to the abdominal organs. For both donor and recipient animals, a total pancreatectomy is performed with preservation of the duodenum. […]
Monitoring. […] Fasting blood glucose (FG) levels are determined by using a lancet to prick the heel, to obtain a small drop of blood for placement on a glucometer strip. […]

[3] = tested on: islet allograft function (glucose metabolism) in baboons; assay: Intravenous glucose tolerance testing (IVGTT) of baboon islet allograft recipients; type: in vivo, Baboon (Papio hamadryas)
Experimental: Intravenous Glucose Tolerance Testing (IVGTT). It has been previously shown that in vivo islet-cell function tests give an accurate reflection of changes in β cell mass. (McCulloch et al., Diabetes 40: 673-679, 1991). Intravenous glucose tolerance tests were carried out after a 16- to 18-h overnight fast, as previously described (Lehmann et al., J. Med. Primatol. 26: 312-321, 1997). In brief, blood samples were collected at −10, −5, and 0 min. Then 0.5 g glucose per kg of body weight in a 50% glucose solution was injected over 20 seconds into the saphenous vein. 1.5 ml samples were collected from the contralateral femoral artery at 1, 3, 5, 7, 10, 15, 20, 25, 30 min post injection. Thus, a total of 12 blood samples were withdrawn over a […] period. The samples were drawn into glass tubes containing 0.05 ml 15% fluid EDTA and 0.2 ml trasylol (500 K.I.U. aprotinin/ml blood), placed on ice, and centrifuged within 10 minn. Plasma was then frozen at −80° C. and assayed later for glucose, immunoreactive insulin, and glucagon.
Statistical analysis and calculations. Results are set forth as means ±SEM. The glucose disappearance constant (Kg) was calculated from the IVGTT as the slope of the decline of the loge (In) plasma glucose between 10 and 30 min. after the glucose injection, multiplied by 100. The acute insulin response to glucose (AIRG) was calculated as the incremental area under the insulin curve (AUC) between 1-10 min after the IV glucose injection. The incremental responses (AUCGlucose, AUCInsulin) were calculated by means of the trapezoidal rule with subtraction of the basal values from 1 to 30 minutes, Data were analyzed with Statistica for Windows software (Version 5.0, 1997. Statsoft Inc., Tulsa, Okla., USA).

| Molecule | day of islet allograft rejection ([1]; Baboon, FK506 alone) [day] | day of islet allograft rejection ([1]; Baboon, FK506 in combination with stem cell selected marrow) [day] | day of islet allograft rejection ([1]; Baboon, FK506 in combination with whole bone marrow) [day] | islet allograft function and rejection episodes [2] | islet allograft survival versus control or FK506 treated animals ([1]; 4 out of 5 baboons) | Duration (in PODs) of Insulin Independence ([1]; Baboon, Induction + Anti-Rejection regimen, animal received a reduced dose of 5c8) [PODs] | POD until which graft was maintained after treatment for rejection ([1]; Baboon, induction 20 mg/kg days -1, 3, 10 + monthly maintenance from POD 28, bone marrow infusions PODs 5 and 11, listed as 5C8) | graft survival of functioning islet allografts ([1]; Baboon, other animals in the study, range of survivals, listed as hu5c8) | adverse effect on insulin secretion or overall insulin sensitivity ([3]; baboon studies) | FPIS (first phase insulin secretion) after islet transplantation ([3]; baboons on maintenance therapy, follow-up 16 weeks) | Kg values (glucose disappearance constant) in repeated IVGTT ([3]; baboons treated at the time of rejection, after 8 postoperative weeks) | Kg values (glucose disappearance constant) in repeated IVGTT ([3]; baboons treated with maintenance doses) |
| --- | --- | --- | --- | --- | --- | --- | --- | --- | --- | --- | --- | --- |
| C=CC[C@@H]1/C=C(\C)C[C@H](C)C[C@H](OC)[C@H]2O[C@@](O)(C(=O)C(=O)N3CCCC[C@H]3C(=O)O[C@H](/C(C)=C/[C@@H]3CC[C@@H](O)[C@H](OC)C3)[C@H](C)[C@@H](O)CC1=O)[C@H](C)C[C@@H]2OC [FK506, tacrolimus, reference compound] | 10 | 10 | 8 |  |  |  |  |  |  |  |  |  |
| Anti-CD154: humanized MAb having the antigen-specific binding properties of MAb 5c8; CD154 (CD40L) blocking agent |  |  |  | functional islet allografts are maintained without the occurrence of rejection episodes | extended islet allograft survival | 8 | 162 POD and 124 POD | > 125 days and > 220 days | no adverse effect | well preserved | decline | Stable values |
